In PMC6009956, “Design, synthesis and biological activity of N^4-phenylsubstituted-7H-pyrrolo[2,3-d]pyrimidin-4-amines as dual inhibitors of aurora kinase A and epidermal growth factor receptor kinase” (Journal of Enzyme Inhibition and Medicinal Chemistry, 2017):
Like-named read-outs stand apart in the source and are kept apart here.

Tests used:
EGFR = EGFR (Homo sapiens, UniProt P00533); test: ADP-Glo kinase assay, EGFR; assay type: biochemical; parameters: purchased BPS Bioscience (assay run externally by the vendor)
EGFR, sequence (P00533 25-1210): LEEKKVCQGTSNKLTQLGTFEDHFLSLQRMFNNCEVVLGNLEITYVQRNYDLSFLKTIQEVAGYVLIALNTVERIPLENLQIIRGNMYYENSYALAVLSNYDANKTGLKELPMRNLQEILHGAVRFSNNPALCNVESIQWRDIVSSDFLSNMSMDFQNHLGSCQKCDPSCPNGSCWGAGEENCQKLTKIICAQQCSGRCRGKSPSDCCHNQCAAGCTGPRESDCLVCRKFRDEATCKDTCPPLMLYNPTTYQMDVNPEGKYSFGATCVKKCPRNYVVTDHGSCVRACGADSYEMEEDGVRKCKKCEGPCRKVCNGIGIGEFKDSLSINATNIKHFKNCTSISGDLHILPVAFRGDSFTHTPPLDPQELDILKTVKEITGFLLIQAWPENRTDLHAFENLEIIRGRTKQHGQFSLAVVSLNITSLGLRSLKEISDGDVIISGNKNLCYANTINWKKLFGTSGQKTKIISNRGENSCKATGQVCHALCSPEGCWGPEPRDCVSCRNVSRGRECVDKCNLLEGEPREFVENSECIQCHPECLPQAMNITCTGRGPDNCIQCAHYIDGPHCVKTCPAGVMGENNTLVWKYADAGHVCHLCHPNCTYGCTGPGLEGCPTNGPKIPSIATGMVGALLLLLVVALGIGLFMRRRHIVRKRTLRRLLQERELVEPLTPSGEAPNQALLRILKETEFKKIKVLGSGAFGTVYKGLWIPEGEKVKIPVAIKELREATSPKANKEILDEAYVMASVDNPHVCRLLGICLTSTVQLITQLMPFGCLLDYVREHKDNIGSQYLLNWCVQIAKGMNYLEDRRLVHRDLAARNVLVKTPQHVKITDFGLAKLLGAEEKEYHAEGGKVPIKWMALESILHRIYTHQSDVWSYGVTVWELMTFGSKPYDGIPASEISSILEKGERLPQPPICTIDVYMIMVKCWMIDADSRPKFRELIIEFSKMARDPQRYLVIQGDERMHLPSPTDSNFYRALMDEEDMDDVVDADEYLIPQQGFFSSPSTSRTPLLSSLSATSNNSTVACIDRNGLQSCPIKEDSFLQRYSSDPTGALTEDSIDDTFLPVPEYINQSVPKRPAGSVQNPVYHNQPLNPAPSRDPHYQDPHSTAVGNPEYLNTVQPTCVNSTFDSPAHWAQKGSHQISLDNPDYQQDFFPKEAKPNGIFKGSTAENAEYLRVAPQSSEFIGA

aurora A kinase (AURKA) = molecular target: T1, aurora A kinase (AURKA) (Homo sapiens, UniProt O14965); test: ADP-Glo kinase assay, Aurora A; assay type: biochemical
T1 construct: purchased BPS Bioscience (assay run externally by the vendor)
T1 sequence (O14965 1-403): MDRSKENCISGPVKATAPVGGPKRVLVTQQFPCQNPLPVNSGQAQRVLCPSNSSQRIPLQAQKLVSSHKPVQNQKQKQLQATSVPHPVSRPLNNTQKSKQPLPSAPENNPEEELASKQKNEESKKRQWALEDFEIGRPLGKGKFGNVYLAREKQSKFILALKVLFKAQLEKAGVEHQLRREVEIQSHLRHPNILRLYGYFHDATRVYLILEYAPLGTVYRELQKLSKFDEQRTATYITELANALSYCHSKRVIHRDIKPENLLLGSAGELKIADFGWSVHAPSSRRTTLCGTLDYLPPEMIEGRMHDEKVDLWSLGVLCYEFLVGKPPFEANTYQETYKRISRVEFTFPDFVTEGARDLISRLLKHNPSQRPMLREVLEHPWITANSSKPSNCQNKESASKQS

## Clc1ccc(Nc2ncnc3[nH]ccc23)cc1Br [Compound 7, N^4-(3-bromo, 4-chlorophenyl)-7H-pyrrolo[2,3-d]pyrimidine-4-amine]
EGFR
  EGFR inhibition (in words): single-digit nanomolar EGFR inhibition
EGFR; 10 µM ATP, triplicate, read-out: EGFR IC50 ± SD
  IC50: 3.63 ± 0.43 nM
EGFR; 10 µM ATP/0.2 mg/ml Poly-Glu-Tyr, read-out: EGFR IC50 (dose-response curve, supplement)
  IC50: 3.6 nM
EGFR; Log[nM] 0
  EGFR % Activity Set1: 44%
  EGFR % Activity Set2: 50%
  EGFR % Activity Set3: 53%
EGFR; Log[nM] 1.0
  EGFR % Activity Set1: 18%
  EGFR % Activity Set2: 17%
  EGFR % Activity Set3: 20%
EGFR; Log[nM] 1.5
  EGFR % Activity Set1: 12%
  EGFR % Activity Set2: 13%
  EGFR % Activity Set3: 15%
EGFR; Log[nM] 2.0
  EGFR % Activity Set1: 4%
  EGFR % Activity Set2: 5%
  EGFR % Activity Set3: 4%
EGFR; Log[nM] 2.5
  EGFR % Activity Set1: 3%
  EGFR % Activity Set2: 3%
  EGFR % Activity Set3: 3%
EGFR; Log[nM] 3.0
  EGFR % Activity Set1: 1%
  EGFR % Activity Set2: 2%
  EGFR % Activity Set3: 2%
EGFR; Log[nM] 3.5
  EGFR % Activity Set1: 1%
  EGFR % Activity Set2: 1%
  EGFR % Activity Set3: 0%
EGFR; Log[nM] 4.0
  EGFR % Activity Set1: 0%
  EGFR % Activity Set2: 0%
  EGFR % Activity Set3: 0%
EGFR; Log[nM] 4.5
  EGFR % Activity Set1: 1%
  EGFR % Activity Set2: 1%
  EGFR % Activity Set3: 1%
EGFR; Log[nM] 5.0
  EGFR % Activity Set1: 0%
  EGFR % Activity Set2: 0%
  EGFR % Activity Set3: 0%
Aurora A kinase (AURKA); 10 µM ATP, triplicate, read-out: AURKA IC50 ± SD
  IC50: 3230 ± 310 nM
Aurora A kinase (AURKA); 10 µM ATP/0.2 mg/ml Kemptide, read-out: Aurora A IC50 (dose-response curve, supplement)
  IC50: 3300 nM
Aurora A kinase (AURKA); Log[nM] 0
  Aurora A % Activity Set1: 95%
  Aurora A % Activity Set2: 102%
  Aurora A % Activity Set3: 95%
Aurora A kinase (AURKA); Log[nM] 1.0
  Aurora A % Activity Set1: 100%
  Aurora A % Activity Set2: 103%
  Aurora A % Activity Set3: 99%
Aurora A kinase (AURKA); Log[nM] 1.5
  Aurora A % Activity Set1: 100%
  Aurora A % Activity Set2: 103%
  Aurora A % Activity Set3: 103%
Aurora A kinase (AURKA); Log[nM] 2.0
  Aurora A % Activity Set1: 100%
  Aurora A % Activity Set2: 106%
  Aurora A % Activity Set3: 105%
Aurora A kinase (AURKA); Log[nM] 2.5
  Aurora A % Activity Set1: 95%
  Aurora A % Activity Set2: 97%
  Aurora A % Activity Set3: 95%
Aurora A kinase (AURKA); Log[nM] 3.0
  Aurora A % Activity Set1: 95%
  Aurora A % Activity Set2: 103%
  Aurora A % Activity Set3: 93%
Aurora A kinase (AURKA); Log[nM] 3.5
  Aurora A % Activity Set1: 40%
  Aurora A % Activity Set2: 40%
  Aurora A % Activity Set3: 37%
Aurora A kinase (AURKA); Log[nM] 4.0
  Aurora A % Activity Set1: 16%
  Aurora A % Activity Set2: 16%
  Aurora A % Activity Set3: 15%
Aurora A kinase (AURKA); Log[nM] 4.5
  Aurora A % Activity Set1: 31%
  Aurora A % Activity Set2: 30%
  Aurora A % Activity Set3: 30%
Aurora A kinase (AURKA); Log[nM] 5.0
  Aurora A % Activity Set1: 17%
  Aurora A % Activity Set2: 15%
  Aurora A % Activity Set3: 16%
